Measured values as given in patent publication US9097673B2, “Processes and kits for determining multi-drug resistance of cells” (ENZO LIFE SCIENCES, INC., priority 2010, dated 2015).

Tests used:
[1] = tested on: CHO K1 cell line; test: Dye uptake flow cytometry MDR assay; type: cell-based, hamster; conditions: CHO K1, dye uptake;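 note: flow cytometry of dye-loaded cells, Kolmogorov-Smirnov D value (0 to 1.0) comparing fluorescence with versus without inhibitor, made negative when the uninhibited control was brighter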
Method: (§10) Concentrations of the modulators used in the experiments were non-toxic to the cells (based upon standard 3-(4,5-Dimethylthiazol-2-Yl)-2,5-Diphenyltetrazolium Bromide (MTT) testing, data not shown). Fluo-8™ was used in all experiments at 5 μM, and Rhod-4™—at 4 μM final concentrations.

[2] = tested on: HCT-8 cells; test: Dye uptake flow cytometry MDR assay; type: cell-based, human; parameters: key: Kolmogorov-Smirnov D statistic comparing fluorescence distributions; conditions: HCT-8, dye uptake
Method: (§1) Cells were grown on tissue culture dishes and on the day of assay were trypsinized and washed twice with warm (37° C.) phosphate-buffered saline (PBS). Post-wash, the cells were re-suspended in warm phenol red indicator-free medium at a density of 1×10^6/ml. For each detection set, sixteen tubes (5 samples in triplicates plus non-stained control for background fluorescence) in numbered tubes each containing 5×10^5/cells (0.5 ml) were prepared. […] After incubation for 5 min at 37° C., 0.25 ml of warm medium with Fluo-8™ AM probe (5 μM final concentration) or Rhod-4™ AM probe (2 μM final concentration) was added to each tube excluding non-stained control that receives plain medium and cells were incubated for 30 min at 37° C. and analyzed immediately by flow cytometry. In the second set of the tubes, the reaction was stopped by rapid centrifugation (1 min) at relatively low speed (200×g). After wash with ice-cold PBS and discarding the supernatant, cells were re-suspended in 0.5 ml of ice-cold medium and kept on ice until flow cytometry analysis. The third set of cells simply was spun down (1 min, 200×g) to remove the excess of the probe, resuspended in ice-cold medium and kept on ice until flow cytometry analysis.
(§2) Flow cytometry experiments were performed using a FACS Calibur benchtop flow cytometer (BD Biosciences) equipped with a blue (488 nm) laser, and the signals were registered in the FITC (530/30 filter), PE (585/42 filter) and PerCP (670 LP filter) channels. Fluo-8™ dye fluorescence was measured in the FL1 channel, and Rhod-4™ dye fluorescence—in the FL2 channel. Flow cytometry data were analyzed by comparison of median fluorescence or using Kolmogorov-Smirnov statistics [Young, J Histochem Cytochem 25:935-941 (1977)] or by calculating MAF values (MDR Activity Factor) using the following formula: MAF=100*((MFIinh−MFI0)/MFIinh), where MFIinh and MFI0 are mean fluorescence intensity values measured in the presence and absence of inhibitor [Hollo et al., Biochem Piophys Acta. 1191:384-388 (1994)].
(§3) Both human ileocecal colorectal carcinoma cell line HCT-8 (reported to over-express P-gp and, to a lesser extent, MRP [Hunter et al., Br J Cancer. 64:437-444 (1991); Collington et al., Biochem Pharmacol 44:417-424 (1992)] and hepatocellular carcinoma Hep G2 (reported to over-express MRP [Roelofsen et al., Gastroenterology 112:511-521 (1997), Cantz et al., Am J Physiol Gastrointest Liver Physiol. 278:G522-G531 (2000)] were obtained from ATCC. HCT-8 cells were routinely cultured in RPMI-1640 Medium with 2 mM L-glutamine, 10 mM HEPES, 1 mM sodium piruvate, 4.5 g/L glucose, 1.5 g/L sodium bicarbonate (ATCC), supplemented with 10% horse serum (ATCC) and 100 U/ml penicillin, 100 ug/ml streptomycin (Sigma-Aldrich, St. Louis, Mo.). Hep G2 cells were routinely cultured in Eagle's Minimum Essential Medium with low glucose (ATCC), supplemented with 10% heat inactivated fetal bovine serum (ATCC) and 100 U/ml penicillin, 100 ug/ml streptomycin (Sigma-Aldrich, St. Louis, Mo.). Cell cultures were maintained in a humidified incubator at 37° C., with 5% CO2 atmosphere. Stock solutions of the probes and inhibitors were prepared, as described in Examples 2 and 3. Cells were grown in tissue culture dishes and on the day of assay were treated according to a dye uptake protocol and analyzed by flow cytometry, as described in Example 3.

[3] = tested on: Hep G2 cells; test: Dye uptake flow cytometry MDR assay; type: cell-based, human; parameters: key: Kolmogorov-Smirnov D statistic comparing fluorescence distributions; conditions: HepG2, dye uptake
Method: as §1, §2, §3

[4] = tested on: HeLa cell line; test: Dye uptake flow cytometry MDR assay; type: cell-based, human; conditions: HeLa, dye uptake
Method: as §10

[5] = tested on: CHO K1 cell line; test: Dye efflux flow cytometry MDR assay; type: cell-based, hamster; parameters: key to D-value, Verapamil / D-value, Novobiocin: KS D value, 0 to 1; negative if control brighter than sample; conditions: CHO K1, dye efflux
From the text: (§4) Kolmogorov-Smirnov statistics measures the difference between two distribution functions and generates a D value ranging between 0 and 1.0, with higher values indicating a greater difference between the distribution functions. The D value generated by the KS statistics was modified by ascribing a negative value if the fluorescence of a negative control (no inhibitor) was brighter than the fluorescence of the sample with inhibitor. The method was one of those recommended by the First International MDR1 Methods Detection Workshop (St. Jude Children's Research Hospital, Memphis, Tenn.).
(§5) Cells were grown in tissue culture dishes and on the day of assay they were trypsinized and washed twice with ice-cold PBS. Post-wash, the cells were re-suspended in cold phenol red indicator-free medium at a density of 1×10^6/ml. For each detection set, eighteen tubes (6 tubes without inhibitor and 3 tubes for each inhibitor tested, in triplicates) each containing 2.5-5×10^5/cells were prepared. Cells were centrifuged at 200×g for 5 min, and after discarding supernatant, re-suspended at 1×10^6/ml in ice-cold indicator-free medium containing Fluo-8™ AM or Rhod-4™ AM probes. Additionally, an aliquot of non-stained cells was prepared for background fluorescence measurements. Cells were incubated with the probe(s) on ice for 60 min, than centrifuged at 200×g for 5 min. After discarding the supernatant, cells were either washed twice with PBS or simply were spun down to remove the excess of the probe and resuspended at 5×10^5 cells/sample in 0.5 ml of following solutions:
(§6) 1. warm (37° C.) indicator-free medium containing vehicle only (3 tubes)
(§7) 2. warm (37° C.) indicator-free medium containing inhibitor (3 tubes for each inhibitor tested)
(§8) 3. ice-cold indicator-free medium (3 tubes)
(§9) Tube sets 1 and 2 were immediately transferred to a water bath (37° C.) and incubated for 90 min. Tube set 3 was kept on ice. Post incubation, 4 ml of ice-cold indicator-free medium was added per tube, tubes were centrifuged at 200×g for 5 min, supernatant was discarded, and cell pellet was re-suspended in the cold indicator-free medium and centrifuged again. Finally, cells were re-suspended in 0.5 ml of cold indicator-free medium and maintained on ice until analysis. Alternatively, cells were analyzed without washing. Flow cytometry experiments were performed as described in Example 3.

[6] = tested on: HeLa cell line; test: Dye efflux flow cytometry MDR assay; type: cell-based, human; parameters: key to D-value, Verapamil / D-value, Novobiocin: KS D value, 0 to 1; negative if control brighter than sample
From the text: as §4, §5, §6, §7, §8, §9

[7] = tested on: A549 cell line; test: Dye efflux flow cytometry MDR assay; type: cell-based, human; parameters: key to D-value, Verapamil / D-value, Novobiocin: KS D value, 0 to 1; negative if control brighter than sample; conditions: A549, dye efflux
From the text: as §4, §5, §6, §7, §8, §9

[8] = tested on: A549 cell line; test: Dye uptake flow cytometry MDR assay; type: cell-based, human; conditions: A549, dye uptake
Method: as §10

[9] = average of three representative experiments (Table 6)
[10] = representative experiment (Table 8)
[11] = kept on ice without inhibitor (Table 9)
[12] = representative experiment (Table 9)

`CC(=O)OCOC(=O)CN(CC(=O)OCOC(C)=O)Cc1cc2c(cc1OC(C)=O)Oc1cc(OC(C)=O)c(CN(CC(=O)OCOC(C)=O)CC(=O)OCOC(C)=O)cc1C21OC(=O)c2ccccc21` [Calcein AM] was tested, and the “D-value, Fumitremorgan C” value [1, 9] was 0.17, the “D-value, Probenecid” value [1, 9] was 0.77 and the “D-value, Verapamil” value [1, 9] was 0.74. For the same molecule, the “D-value, Cyclosporine A” value [1, 10] was 0.96, the “D-value, Novobiocin” value [1, 10] was 0.06 and the “D-value, Probenecid” value [1, 10] was 0.70. The “D-value, Verapamil” value [1, 10] was 0.93, the “D-value, CyclosporinA” value [2] was 0.31 and the “D-value, MK-571” value [2] was 0.16. For the same molecule, the “D-value, Novobiocin” value [2] was 0.44, the “D-value, Verapamil” value [2] was 0.71 and the “D-value, CyclosporinA” value [3] was 0.29. For the same molecule, the “D-value, MK-571” value [3] was 0.29, the “D-value, Novobiocin” value [3] was 0.02 and the “D-value, Verapamil” value [3] was 0.13. The “D-value, Fumitremorgan C” value [4, 9] was 0.03, the “D-value, Probenecid” value [4, 9] was 0.06 and the “D-value, Verapamil” value [4, 9] was 0.17. For the same molecule, the “D-value, Cyclosporine A” value [4, 10] was 0.14, the “D-value, Novobiocin” value [4, 10] was 0.09 and the “D-value, Probenecid” value [4, 10] was 0.09. For the same molecule, the “D-value, Verapamil” value [4, 10] was 0.13, the “D-value, 4° C.” value [5, 11] was 0.65 and the “D-value, Cyclosporine A” value [5, 12] was 0.31. For the same molecule, the “D-value, Novobiocin” value [5, 12] was 0.13, the “D-value, Probenecid” value [5, 12] was 0.47 and the “D-value, Verapamil” value [5, 12] was 0.26. For the same molecule, the “D-value, 4° C.” value [6, 11] was 0.07, the “D-value, Cyclosporine A” value [6, 12] was 0.08 and the “D-value, Novobiocin” value [6, 12] was 0.04. For the same molecule, the “D-value, Probenecid” value [6, 12] was 0.62, the “D-value, Verapamil” value [6, 12] was 0.1 and the “D-value, 4° C.” value [7, 11] was 0.50. For the same molecule, the “D-value, Cyclosporine A” value [7, 12] was 0.35, the “D-value, Novobiocin” value [7, 12] was 0.15 and the “D-value, Probenecid” value [7, 12] was 0.40. The “D-value, Verapamil” value [7, 12] was 0.03, the “D-value, Fumitremorgan C” value [8, 9] was 0.04 and the “D-value, Probenecid” value [8, 9] was 0.36. For the same molecule, the “D-value, Verapamil” value [8, 9] was 0.17, the “D-value, Cyclosporine A” value [8, 10] was 0.47 and the “D-value, Novobiocin” value [8, 10] was 0.03. For the same molecule, the “D-value, Probenecid” value [8, 10] was 0.27 and the “D-value, Verapamil” value [8, 10] was 0.15.
